One may read the IC50 as the concentration at which inhibition is half-maximal.

Molecules are shown by their SMILES.

The values below come from ChEMBL document CHEMBL5370660, “Design of a Supersoft Topical JAK Inhibitor, Which Is Effective in Human Skin but Rapidly Deactivated in Blood” (J Med Chem, 2023).

Experiment [1] has as its target T1, Mitogen-activated protein kinase kinase kinase 2 (Homo sapiens, UniProt Q9Y2U5).
T1 sequence (Q9Y2U5 whole entry): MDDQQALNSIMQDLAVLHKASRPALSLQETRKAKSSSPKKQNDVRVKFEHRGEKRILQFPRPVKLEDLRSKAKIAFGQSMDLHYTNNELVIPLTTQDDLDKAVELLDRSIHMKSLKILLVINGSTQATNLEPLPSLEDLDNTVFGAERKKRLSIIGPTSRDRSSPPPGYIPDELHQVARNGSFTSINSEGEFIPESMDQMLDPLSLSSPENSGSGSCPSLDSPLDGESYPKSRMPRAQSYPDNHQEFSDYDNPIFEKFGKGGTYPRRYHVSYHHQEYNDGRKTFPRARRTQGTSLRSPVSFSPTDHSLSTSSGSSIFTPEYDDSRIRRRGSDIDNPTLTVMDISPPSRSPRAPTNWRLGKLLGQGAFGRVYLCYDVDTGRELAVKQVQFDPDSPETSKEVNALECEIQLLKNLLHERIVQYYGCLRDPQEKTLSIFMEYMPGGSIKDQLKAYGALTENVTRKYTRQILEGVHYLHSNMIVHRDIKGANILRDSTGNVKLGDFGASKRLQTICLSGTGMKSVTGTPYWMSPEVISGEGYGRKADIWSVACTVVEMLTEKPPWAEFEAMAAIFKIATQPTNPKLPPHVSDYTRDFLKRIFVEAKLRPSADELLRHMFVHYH
Put plainly: Inhibition of MAP3K2 (unknown origin).

The target in experiment [2] is T2, Tyrosine-protein kinase JAK3 (Homo sapiens, UniProt P52333).
T2 sequence (P52333 whole entry): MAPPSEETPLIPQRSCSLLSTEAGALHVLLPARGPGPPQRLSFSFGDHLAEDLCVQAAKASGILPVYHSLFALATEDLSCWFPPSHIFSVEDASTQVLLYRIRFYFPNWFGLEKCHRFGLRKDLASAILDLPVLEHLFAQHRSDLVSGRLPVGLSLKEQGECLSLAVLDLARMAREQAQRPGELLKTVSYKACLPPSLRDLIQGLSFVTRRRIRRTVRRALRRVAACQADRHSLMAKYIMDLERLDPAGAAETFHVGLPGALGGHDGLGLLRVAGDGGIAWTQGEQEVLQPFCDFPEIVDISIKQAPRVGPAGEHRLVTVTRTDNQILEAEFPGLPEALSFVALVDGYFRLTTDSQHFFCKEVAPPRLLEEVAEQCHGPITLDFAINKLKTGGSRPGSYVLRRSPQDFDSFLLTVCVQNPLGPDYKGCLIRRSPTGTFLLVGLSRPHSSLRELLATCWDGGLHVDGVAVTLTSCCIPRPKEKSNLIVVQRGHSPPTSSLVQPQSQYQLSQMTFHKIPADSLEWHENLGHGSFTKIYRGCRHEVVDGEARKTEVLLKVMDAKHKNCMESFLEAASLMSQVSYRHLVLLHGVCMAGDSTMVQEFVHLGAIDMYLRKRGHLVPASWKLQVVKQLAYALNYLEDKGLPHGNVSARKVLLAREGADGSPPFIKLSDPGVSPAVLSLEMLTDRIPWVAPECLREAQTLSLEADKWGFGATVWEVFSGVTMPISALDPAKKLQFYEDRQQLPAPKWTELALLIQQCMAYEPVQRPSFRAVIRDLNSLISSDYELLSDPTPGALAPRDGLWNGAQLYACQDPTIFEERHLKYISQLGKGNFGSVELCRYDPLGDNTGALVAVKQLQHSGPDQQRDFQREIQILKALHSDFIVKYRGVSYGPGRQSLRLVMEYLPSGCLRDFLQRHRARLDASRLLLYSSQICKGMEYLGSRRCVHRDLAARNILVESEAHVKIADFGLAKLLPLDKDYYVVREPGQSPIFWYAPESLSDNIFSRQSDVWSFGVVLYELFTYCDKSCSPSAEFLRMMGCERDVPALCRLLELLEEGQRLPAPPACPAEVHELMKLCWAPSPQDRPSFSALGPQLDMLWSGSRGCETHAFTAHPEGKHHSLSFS
Put plainly: Inhibition of GST-fused JAK3 (811 to 1124 residues)(unknown origin) using Carboxyfluorescein-Ahx-GGEEEEYFELVKKKK peptide as substrate incubated for 30 mins in presence of ATP by caliper microfluidic mobility shift assay.

`COC[C@@H](C)OC(=O)Cc1ccc(Nc2cc(Nc3ccccc3OC)c(C(N)=O)cn2)nc1`: the values for the IC50 in experiment [1] and in experiment [2] were under 100 nM and 4 nM, respectively.
